The text below walks through data of US20230414771A1, “PREPARATION AND USE OF IMMUNOSTIMULATORY CONJUGATED COMPLEXES FOR TARGETED DELIVERY AND ACTIVATION” (YAFEI SHANGHAI BIOLOGY MEDICINE SCIENCE & TECHNOLOGY CO., …, priority 2020, published 2023).

Each structure is given as a SMILES string. Where a SMILES comes first, the peptide text is derived from it. The star is where a group is joined. Doxorubicin(3'-N) = COc1cccc2c1C(=O)c1c(O)c3c(c(O)c1C2=O)C[C@@](O)(C(=O)CO)C[C@@H]3O[C@H]1C[C@H](N*)[C@H](O)[C@H](C)O1; Hexanoyl(6-maleimido) = O=C1C=CC(=O)N1CCCCCC(=O)*

For data set [1], the system named is M2 macrophages. In words: Cytotoxicity screening, inhibition rate of M2 macrophages at 10 uM. Format: cell-based, C57BL/6 mice. The settings on record: 10 uM drug per well, 3 wells, relative to the drug-free group. The protocol: After the cell count in Example 13, the cell concentration was adjusted with the culture medium, and the cells were seeded in a 96-well culture plate at […] of cell suspension per well, wherein the seeding concentration of CD8+ T cells was 100000 cells/well, and the seeding concentration of M2 macrophages was 20000 cells/well. The 96-well plate was incubated overnight for 24 hour at 37° C. in a carbon dioxide (5%) incubator. After 24 hours, 100 ul of cell culture solutions containing different concentrations of drugs were added to the 96-well culture plate. At the same time, a control well (0.1% DMSO) with no drug added and only the corresponding drug solvent and a zero-adjusted well (Blank) with only medium and no cells added was set. Each set was prepared in triplicate and the plates were incubated for 48 hours at 37° C. in a 5% CO2 incubator. After 48 hours, 20 μl MTT (5 mg/ml) was added to each well and the incubation was continued for 4 hours. The culture medium was then gently aspirated, and 150 μl DMSO was added to each well as solvent for dissolution. After dissolution, the absorbance at 490 nm was measured with a microplate reader.
Cytotoxicity screening experiments for some compounds were performed for M2 macrophage inhibition as in embodiment 14.

Data set [2] deals with Human live cancer Hep G2 tumor tissue homogenate. In words: Activation in Hep G2 tumor tissue homogenate. Format: biochemical. The conditions noted are these: Hep G2 homogenate pH 6.0, 37° C., 1 mg/ml. As for the experimental part: In the experiments of the present disclosure, 1 mg/ml of the sample compound was added to 100 μg of acidified tumor tissue homogenate (pH 6.0) at 37° C. The enzyme in the tumor tissue homogenate can cause the release of doxorubicin, and the reduction of compound and the increase of doxorubicin could be detected by HPLC to compare the activation efficiency of the drug in the tumor tissue.

The conditions of data set [3]: 0.5 mg/ml, pH 5.5.
Method: Add 0.5 ml of sterile water for injection to prepare a 10 mg/ml mother solution. […] Take 30 ul of the mother solution, add 570 ul of buffer solutions with different pH values of 5.5, and prepare a 0.5 mg/ml sample solution. After the sample was clarified, it was placed in a 25° C./37° C. water bath, and after 8 hours, the sample was sampled by HPLC and electrophoresis to detect the content of the sample relative to 0 hours, and the solution stability data of different compounds could be obtained.
Data set [4] has as its system CD8+ T cells. The experiment in a line: MTT cytotoxicity on CD8+ T cells. Format: cell-based, C57BL/6 mouse. The conditions noted are these: 48 hours, relative to C3. The protocol: • 1) Take the spleen of C57BL/6 mouse, place it on the culture dish with 40 uM screen (ice bath), add about 10 mL of normal saline, and gently grind with sterile syringe core. • 2) Transfer the ground cell suspension into a 50 mL centrifuge tube, add about 5 mL of normal saline to rinse the petri dish, and also transfer it into the 50 mL centrifuge tube, and combine the suspensions. • 3) Centrifuge the cell suspension at 1000 r/min for 10 min, discard the supernatant, and add an appropriate volume of normal saline to resuspend. Then add 3 times volume of ammonium chloride erythrocyte lysate, pipetting evenly. After lysing on ice for about 10 min, add 10 mL of normal saline to stop the lysing, and centrifuge at 1000 r/min for 5 min. • 4) After centrifugation, discard the supernatant, add 10 mL of physiological saline, pipette evenly, centrifuge at 1000 r/min for 5 min, and repeat the above operation once. Cells were then resuspended in 10% RMPI 1640 medium for subsequent culture or in 0.5% BSA for subsequent T cell sorting. […]
• A. Washing of CD3/CD28 magnetic beads: a. […] The cells were transferred to another tube to remove the beads as completely as possible and cultured in medium supplemented with […] (which could be increased according to the actual situation) and their status, proliferation and viability were monitored. […]

Data set [5] is described as follows: Tissue distribution of released doxorubicin in orthotopic liver CT26 tumor mice. Type of data set: in vivo, BALB/c mice. As for the experimental part:
• Objective: To investigate the tissue distribution of activating drugs in liver tumors. • Test animals: BALB/c mice, 6-8 weeks old, all female.
• 1) CT26 cells were purchased from ATCC. […] Randomization was performed when the tumor size reached 800-1000 mm^3. Tumor tissue was then extracted and cut into 100 mm^3 tumor tissue pieces and transplanted orthotopically into BALB/c mouse livers. • 3) Administration process: After 14 days, when the orthotopically transplanted tumor grew, a group of 36 orthotopically transplanted tumor mice were treated with drugs. […] The previously published use of EMC-AANL-DOX was for breast cancer treatment.

Consider `COc1cccc2c1C(=O)c1c(O)c3c(c(O)c1C2=O)C[C@@](O)(C(=O)CO)C[C@@H]3O[C@H]1C[C@H](NC(=O)[C@H](CC(C)C)NC(=O)[C@H](CC(N)=O)NC(=O)[C@H](C)NC(=O)[C@H](C)NC(=O)CCCCCN2C(=O)C=CC2=O)[C@H](O)[C@H](C)O1` [EMC-AANL-DOX] ({Hexanoyl(6-maleimido)}-AANL-{Doxorubicin(3'-N)}), for which, in data set [1], the “Inhibition rate of M2 macrophages” value is 34.6%. Besides, the “Compound activation ratios (%)” value in data set [2] is 75.3%. Besides, the “Stability data of the solution, 8 hr (content relative to 0 hours)” value in data set [3] came to 94.3%.

Regarding `COc1cccc2c1C(=O)c1c(O)c3c(c(O)c1C2=O)C[C@@](O)(C(=O)CO)C[C@@H]3O[C@H]1C[C@H](NC(=O)[C@H](CC(C)C)NC(=O)[C@H](CC(N)=O)NC(=O)[C@H](C)NC(=O)[C@H](C)NC(=O)CCOCCOCCNC(=O)CCN2C(=O)C=CC2=O)[C@H](O)[C@H](C)O1` [QHL-087-DOX], the “cytotoxicity against CD8+ T cells (FIG. 5)” value in data set [4] is listed as “less cytotoxicity against CD8+ T cells”. Also, the “doxorubicin delivery and activation compared with EMC-AANL-DOX” value in data set [5] (liver and in situ liver tumor) is “enhanced doxorubicin delivery and activation in situ liver cancer”. Moreover, in data set [5] (tissues collected at 1-72 hr, AUClast), the “distribution of active doxorubicin (FIGS. 8 and 9)” value is “mainly distributed in the liver and liver orthotopic tumors”.
